Values after ≈ are worked out from the molar mass of the structure shown. Read-outs that look alike come from different tables or passages of the source.
What was measured:
RVFV MP-12 = experiment: microbe, parasite or virus in culture; type: cell-based, Rift Valley fever virus; conditions: for EC50: read-out: Estimated EC50
C. neoformans = experiment: microbe, parasite or virus in culture; type: cell-based; conditions: for MIC80: Cryptococcus neoformans, read-out: C. neoformans (MIC80, μM)
RVFV strain MP-12 [1] = experiment: microbe, parasite or virus in culture; type: cell-based, Rift Valley fever virus; conditions: read-out: A549 EC50
Human RNase H1 = molecular target: T1, Human RNase H1 (Homo sapiens, UniProt O60930); experiment: biochemical
T1 construct: made in house; host or cells: E. coli
T1 sequence (O60930 1-286): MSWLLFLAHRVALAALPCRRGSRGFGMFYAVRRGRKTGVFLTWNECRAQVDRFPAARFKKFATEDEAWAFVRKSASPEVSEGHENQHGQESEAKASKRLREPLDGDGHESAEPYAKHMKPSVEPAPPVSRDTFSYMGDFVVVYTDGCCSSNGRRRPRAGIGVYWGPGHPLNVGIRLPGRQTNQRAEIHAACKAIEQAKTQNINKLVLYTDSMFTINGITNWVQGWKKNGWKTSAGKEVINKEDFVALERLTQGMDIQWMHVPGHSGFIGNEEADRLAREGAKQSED

RVFV strain MP-12 [2] = experiment: microbe, parasite or virus in culture; type: cell-based, Rift Valley fever virus
ZIKV = experiment: microbe, parasite or virus in culture; type: cell-based, Zika virus; conditions: read-out: ZIKV EC50
LACV = experiment: microbe, parasite or virus in culture; type: cell-based, La Crosse virus; conditions: read-out: LACV EC50
Staphylo-coccus spp. = experiment: organism not typed; type: cell-based
in vitro = conditions: African green monkey
[3] = read-out: Human RNase H1 (IC50)
[4] = Rift Valley fever virus, Vero, 24 h
[5] = Rift Valley fever virus, A549, 24 h
[6] = Rift Valley fever virus, Vero, read-out: Vero EC50
[7] = La Crosse virus, Vero C1008, 24 h

## CC(=Nc1ccccc1F)c1c(C)cc(=O)n(O)c1O [Compound 516]
Vero cells
  CC50: > 120 µM
RVFV MP-12
  EC50: 19 µM

## O=C1C=CC(=O)c2ccccc21 [Compound 327]
C. neoformans
  C. neoformans (MIC80, μM): 9.1 µM
RVFV strain MP-12 [1]
  EC50: 19.6 µM
Human RNase H1; [3]
  IC50: 47 µM
A549 cells
  CC50: 27.5 µM
HepDES19
  CC50: 18.5 µM
RVFV MP-12
  EC50: 2 µM
RVFV strain MP-12 [2]; read-out: EC50
  EC50: 39.7 µM
RVFV strain MP-12 [2]; read-out: Vero EC50
  EC50: 39.7 µM
ZIKV
  EC50: > 120 µM
LACV
  EC50: 12.7 µM

## COC(=O)c1c(C)cc(O)c(=O)c(O)c1O [Compound 196]
Vero cells
  CC50: > 120 µM
Human RNase H1; [3]
  IC50: 408 µM
HepDES19
  CC50: 6 µM
RVFV strain MP-12 [2]; read-out: RVFV (EC50)
  EC50: 23.9 µM
Staphylo-coccus spp.
  Staphylo-coccus spp. (MIC80, μM): 67 µM

## Cc1cc(O)c(=O)c(O)cc1-c1ccccc1 [Compound 113]
C. neoformans
  C. neoformans (MIC80, μM): 24 µM
Vero cells
  CC50: > 120 µM
Human RNase H1; [3]
  IC50: 174 µM
RVFV strain MP-12 [2]; read-out: RVFV (EC50)
  EC50: 10.3 µM

## CC(C)c1ccc(O)c(=O)cc1 [Compound 48, γ -thujaplicin, reference compound]
RVFV MP-12; Rift Valley fever virus, Vero
  EC50: > 120 µM

## CSc1cccc(O)c(=O)c1O [Compound 385]
C. neoformans
  C. neoformans (MIC80, μM): 24 µM
Vero cells
  CC50: > 120 µM
Human RNase H1; [3]
  IC50: 176 µM
HepDES19
  CC50: 100 µM
RVFV strain MP-12 [2]; read-out: RVFV (EC50)
  EC50: 25.2 µM

## Cc1ccc(Sc2cccc(O)c(=O)c2O)cc1 [Compound 838]
C. neoformans
  C. neoformans (MIC80, μM): 1.0 µM
Human RNase H1; [3]
  IC50: 100 µM
HepDES19
  CC50: 18.6 µM
RVFV MP-12
  EC50: 8 µM
RVFV strain MP-12 [2]; read-out: EC50
  EC50: 12.7 µM

## CC(C)c1cccc(=O)c(O)c1 [Compound 47, β-thujaplicin, reference compound]
RVFV MP-12; Rift Valley fever virus, Vero
  EC50: > 120 µM

## O=c1c(O)c(SCc2ccccc2)ccc(SCc2ccccc2)c1O [Compound 703]
C. neoformans
  C. neoformans (MIC80, μM): 7.0 µM
Human RNase H1; [3]
  IC50: 61 µM
HepDES19
  CC50: 8.2 µM
RVFV MP-12
  EC50: 9 µM
RVFV strain MP-12 [2]; read-out: EC50
  EC50: 16.1 µM
Staphylo-coccus spp.
  Staphylo-coccus spp. (MIC80, μM): 13 µM

## Cc1cc(O)c(=O)c(O)cc1S(=O)(=O)c1ccccc1 [Compound 336]
C. neoformans
  MIC80: 50 µM (≈ 14.6 µg/mL)
Vero cells; African green monkey
  CC50: 65.8 µM
Human RNase H1
  IC50: 85 µM
RVFV MP-12; Rift Valley fever virus, Vero
  EC50: 3 µM
RVFV strain MP-12 [2]; [4]
  EC50: 9 µM
In vitro; CC50
  CC50: 70 µM

## Cc1cc(O)c(=O)c(O)cc1C(=O)NCCc1ccccc1 [Compound 710]
Vero cells
  CC50: > 120 µM
RVFV MP-12
  EC50: 17 µM

## Cc1ccc(CNC(=O)c2cc(O)c(=O)c(O)cc2C)c(C)c1 [Compound 809]
Vero cells
  CC50: 64 µM
RVFV MP-12
  EC50: 17 µM

## O=c1c(O)c(-c2ccc(O)c(O)c2)oc2cc(O)c(O)c(O)c12 [Compound 7, Quercetagetin]
RVFV MP-12; Rift Valley fever virus, Vero
  EC50: > 120 µM

## CCCCNC(=O)c1cc(O)c(=O)c(O)cc1C [Compound 1039]
C. neoformans
  MIC80: 12 µM (≈ 3.02 µg/mL)
RVFV strain MP-12 [1]; [5]
  EC50: 15.5 µM
Vero cells; African green monkey
  CC50: > 120 µM
Human RNase H1
  IC50: 209 µM
RVFV MP-12; Rift Valley fever virus, Vero
  EC50: 6 µM
RVFV strain MP-12 [2]; [4]
  EC50: 8.9 µM
RVFV strain MP-12 [2]; [6]
  EC50: 8.9 µM
In vitro; Vero CC50
  CC50: > 120 µM
ZIKV; Zika virus, Vero C1008, 48 h
  EC50: > 120 µM
LACV; [7]
  EC50: > 120 µM

## CCCCCCS(=O)(=O)c1ccc(S(=O)(=O)CCCCCC)c(O)c(=O)c1O [Compound 700]
RVFV MP-12
  Estimated EC50: inactive
RVFV MP-12; Rift Valley fever virus, Vero
  EC50: > 120 µM
In vitro; Estimated CC50
  CC50: > 120 µM

## Cc1cc(O)c(=O)c(O)cc1C(=O)c1ccccc1 [Compound 111]
C. neoformans
  C. neoformans (MIC80, μM): 36 µM
Vero cells
  CC50: > 120 µM
Human RNase H1; [3]
  IC50: 48 µM
RVFV strain MP-12 [2]; read-out: RVFV (EC50)
  EC50: 19 µM

## COc1ccc(/C=C/C(=O)c2ccccc(=O)c2O)cc1 [Compound 342]
C. neoformans
  C. neoformans (MIC80, μM): 24 µM
Vero cells
  CC50: > 120 µM
Human RNase H1; [3]
  IC50: > 500 µM
HepDES19
  CC50: 30.4 µM
RVFV MP-12
  EC50: 2 µM
RVFV strain MP-12 [2]; read-out: EC50
  EC50: 55.5 µM

## Cc1cc(O)c(=O)c(O)cc1C(=O)NCc1ccc(N2CCCC2)cc1 [Compound 1019]
Vero cells
  CC50: > 120 µM
RVFV MP-12
  EC50: 19 µM

## CC(=Nc1ccccc1Cl)c1c(C)cc(=O)n(O)c1O [Compound 668]
RVFV strain MP-12 [1]
  EC50: 35.7 µM
Vero cells
  CC50: > 120 µM
Human RNase H1; [3]
  IC50: 165 µM
A549 cells
  CC50: 82 µM
HepDES19
  CC50: 76.8 µM
RVFV MP-12
  EC50: 11 µM
RVFV strain MP-12 [2]; read-out: EC50
  EC50: 19.2 µM
RVFV strain MP-12 [2]; read-out: Vero EC50
  EC50: 19.2 µM
ZIKV
  EC50: > 120 µM
LACV
  EC50: > 120 µM

## COc1ccc(CON=C(C)c2c[nH]c(=O)[nH]c2=O)cc1 [Compound 522]
Vero cells
  CC50: 1 µM
RVFV MP-12
  EC50: > 1 µM

## Cc1cc(O)c(=O)c(O)cc1C(=O)N[C@@H](CCC(=O)OC(C)(C)C)C(=O)OC(C)(C)C [Compound 867]
C. neoformans
  MIC80: 9 µM (≈ 3.94 µg/mL)
RVFV strain MP-12 [1]; [5]
  EC50: 33 µM
RVFV MP-12; Rift Valley fever virus, Vero
  EC50: 6.66 µM
RVFV strain MP-12 [2]; [4]
  EC50: 8.7 µM
RVFV strain MP-12 [2]; [6]
  EC50: 8.7 µM
In vitro; CC50
  CC50: > 120 µM
In vitro; Vero CC50
  CC50: > 120 µM
ZIKV; Zika virus, Vero C1008, 48 h
  EC50: > 120 µM
LACV; [7]
  EC50: > 120 µM

## O=C1c2ccccc2C(=O)N1O [Compound 138]
RVFV MP-12
  EC50: > 120 µM

— PMC9481026 (PLoS ONE, 2022)
